The source of these data is ChEMBL document CHEMBL4145665, “Structure-Activity Relationship of Novel and Selective Biaryl-Chroman GPR40 AgoPAMs” (ACS Med Chem Lett, 2018).

Some results are limits rather than exact numbers.

For series [1], the target named is T1, Free fatty acid receptor 1 (Homo sapiens, UniProt O14842). The experiment in a line: Agonist activity at recombinant human GPR40 expressed in HEK293 cells assessed as increase in IP1 accumulation measured after 60 mins by HTRF assay relative to AM-1638. The format is functional, cell-based.
Series [2] has as its target T1, Free fatty acid receptor 1. Nature of the series: Agonist activity at recombinant human GPR40 expressed in HEK293 cells assessed as increase in IP1 accumulation measured after 60 mins in presence of 100% human serum by HTRF assay relative to AM-1638. The format is functional, cell-based.
In series [3] the target is Free fatty acid receptor 1 (Rattus norvegicus) (UniProt Q8K3T4). The experiment in a line: Agonist activity at recombinant rat GPR40 expressed in CHOK1 cells assessed as increase in IP1 accumulation measured after 60 mins by HTRF assay relative to AM-1638. The format is functional, cell-based.
Series [4] has as its system Rattus norvegicus. Nature of the series: Antidiabetic activity in po dosed Goto Kakizaki rats assessed as plasma concentration required for reduction in blood glucose excursion at MED pretreated for 1 hr followed by dextrose challenge measured 3 hrs post dose by OGTT. The format is functional, organism-based.
Series [5] has as its system Rattus norvegicus. Nature of the series: Antidiabetic activity in Sprague-Dawley rat assessed as inhibition of blood glucose AUC at 3 mg/kg, po treated prior to dextrose challenge and measured after 20 to 60 mins by IPGTT relative to control. The format is functional.
In series [6] the target is Free fatty acid receptor 1 (Rattus norvegicus, UniProt Q8K3T4). Nature of the series: Agonist activity at recombinant rat GPR40 expressed in CHOK1 cells assessed as increase in IP1 accumulation measured after 60 mins by HTRF assay. The format is functional, cell-based.
For series [7], the system named is Rattus norvegicus. Nature of the series: Antidiabetic activity in po dosed Goto Kakizaki rats assessed as reduction in blood glucose excursion pretreated for 1 hr followed by dextrose challenge measured after 20 to 60 mins by OGTT method. The format is functional. Particulars: read-out: MED.
Series [8] can be described thus: Fraction unbound in Wistar-Han rat plasma at 1 mg/kg, iv or 2 mg/kg, po administered as single dose. The format is ADME, organism-based.
Another series addresses Bile salt export pump (Homo sapiens, UniProt O95342). Nature of the series: Inhibition of human BSEP expressed in baculovirus infected Sf9 insect cell membrane vesicles assessed as reduction in ATP-dependent [3H]-taurocholic acid uptake. The format is ADME.
Series [9] is described as follows: Lipophilicity, log D of the compound at pH 7 at 100 uM by HPLC method. The format is physicochemical. Particulars: buffer.
Series [10] addresses T2, Free fatty acid receptor 4 (Homo sapiens, UniProt Q5NUL3).
T2 sequence (Q5NUL3 whole entry): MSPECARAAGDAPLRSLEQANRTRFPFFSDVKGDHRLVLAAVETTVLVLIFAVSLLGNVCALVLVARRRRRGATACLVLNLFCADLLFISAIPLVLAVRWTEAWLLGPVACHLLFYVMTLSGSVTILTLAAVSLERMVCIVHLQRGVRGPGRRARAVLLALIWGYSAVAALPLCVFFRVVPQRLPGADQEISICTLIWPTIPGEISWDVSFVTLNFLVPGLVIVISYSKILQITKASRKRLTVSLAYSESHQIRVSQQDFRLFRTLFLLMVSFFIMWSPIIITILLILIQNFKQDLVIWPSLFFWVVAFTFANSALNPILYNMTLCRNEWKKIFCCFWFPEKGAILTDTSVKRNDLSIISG
The experiment in a line: Agonist activity at GPR120 (unknown origin). The format is functional.

Series [11] has as its system Rattus norvegicus. Nature of the series: Antidiabetic activity in Goto Kakizaki rats assessed as plasma concentration required for reduction in blood glucose excursion at 0.3 mg/kg, po pretreated for 1 hr followed by dextrose challenge measured 3 hrs post dose by OGTT. The format is functional, organism-based.
For series [12], the system named is Rattus norvegicus. Nature of the series: Antidiabetic activity in Goto Kakizaki rats assessed as plasma concentration required for reduction in blood glucose excursion at 1 mg/kg, po pretreated for 1 hr followed by dextrose challenge measured 3 hrs post dose by OGTT. The format is functional, organism-based.
In series [13] the test system is Rattus norvegicus. The experiment in a line: Antidiabetic activity in Goto Kakizaki rats assessed as plasma concentration required for reduction in blood glucose excursion at 3 mg/kg, po pretreated for 1 hr followed by dextrose challenge measured 3 hrs post dose by OGTT. The format is functional, organism-based.
In series [14] the test system is Rattus norvegicus. Nature of the series: Antidiabetic activity in Goto Kakizaki rats assessed as plasma concentration required for reduction in blood glucose excursion at 10 mg/kg, po pretreated for 1 hr followed by dextrose challenge measured 3 hrs post dose by OGTT. The format is functional, organism-based.
Series [15] deals with Rattus norvegicus. Nature of the series: Antidiabetic activity in Goto Kakizaki rats assessed as plasma concentration required for reduction in blood glucose excursion at 30 mg/kg, po pretreated for 1 hr followed by dextrose challenge measured 3 hrs post dose by OGTT. The format is functional, organism-based.
Series [16] concerns Rattus norvegicus. Nature of the series: Antidiabetic activity in Goto Kakizaki rats assessed as inhibition of blood glucose AUC at 0.3 mg/kg, po pretreated for 1 hr followed by dextrose challenge measured after 20 to 60 mins by OGTT method relative to control. The format is functional.
Series [17] deals with T1, Free fatty acid receptor 1. The experiment in a line: Agonist activity at recombinant human GPR40 expressed in HEK293 cells assessed as increase in IP1 accumulation measured after 60 mins by HTRF assay. The format is functional, cell-based.
Series [18] has as its target T1, Free fatty acid receptor 1. Nature of the series: Agonist activity at recombinant human GPR40 expressed in HEK293 cells assessed as increase in IP1 accumulation measured after 60 mins in presence of 100% human serum by HTRF assay. The format is functional, cell-based.
A short description of series [19]: Clearance in Wistar-Han rat at 1 mg/kg, iv or 2 mg/kg, po administered as single dose. The format is ADME, organism-based. Particulars: in vivo.
A short description of series [20]: Volume of distribution at steady state in Wistar-Han rat at 1 mg/kg, iv or 2 mg/kg, po administered as single dose. The format is ADME, organism-based. Particulars: in vivo, read-out: Vdss.
Series [21] in a line: Effective half life in Wistar-Han rat at 1 mg/kg, iv or 2 mg/kg, po administered as single dose. Particulars: in vivo, read-out: t1/2eff (converted). The format is ADME, organism-based.
Series [22] in a line: Oral bioavailability in Wistar-Han rat at 2 mg/kg administered as single dose. The format is ADME, organism-based. Particulars: in vivo.
The subject of series [23] is Rattus norvegicus. The experiment in a line: Antidiabetic activity in Goto Kakizaki rats assessed as inhibition of blood glucose AUC at 1 mg/kg, po pretreated for 1 hr followed by dextrose challenge measured after 20 to 60 mins by OGTT method relative to control. The format is functional.
Series [24] concerns Rattus norvegicus. Nature of the series: Antidiabetic activity in Goto Kakizaki rats assessed as inhibition of blood glucose AUC at 3 mg/kg, po pretreated for 1 hr followed by dextrose challenge measured after 20 to 60 mins by OGTT method relative to control. The format is functional.
Series [25] concerns Rattus norvegicus. Nature of the series: Antidiabetic activity in Goto Kakizaki rats assessed as inhibition of blood glucose AUC at 10 mg/kg, po pretreated for 1 hr followed by dextrose challenge measured after 20 to 60 mins by OGTT method relative to control. The format is functional.
Series [26] deals with Rattus norvegicus. The experiment in a line: Antidiabetic activity in Goto Kakizaki rats assessed as inhibition of blood glucose AUC at 30 mg/kg, po pretreated for 1 hr followed by dextrose challenge measured after 20 to 60 mins by OGTT method relative to control. The format is functional.

T1 sequence (O14842 whole entry): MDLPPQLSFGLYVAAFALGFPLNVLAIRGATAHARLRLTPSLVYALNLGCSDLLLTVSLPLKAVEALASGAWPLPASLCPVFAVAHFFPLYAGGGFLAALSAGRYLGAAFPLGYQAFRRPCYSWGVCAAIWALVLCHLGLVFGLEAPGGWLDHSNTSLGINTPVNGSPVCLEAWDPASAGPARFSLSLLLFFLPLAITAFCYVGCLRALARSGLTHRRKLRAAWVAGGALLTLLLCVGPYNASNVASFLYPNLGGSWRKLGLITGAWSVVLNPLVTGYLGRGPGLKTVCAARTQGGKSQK
Sequence of Free fatty acid receptor 1 (Rattus norvegicus, UniProt Q8K3T4) (Q8K3T4 whole entry): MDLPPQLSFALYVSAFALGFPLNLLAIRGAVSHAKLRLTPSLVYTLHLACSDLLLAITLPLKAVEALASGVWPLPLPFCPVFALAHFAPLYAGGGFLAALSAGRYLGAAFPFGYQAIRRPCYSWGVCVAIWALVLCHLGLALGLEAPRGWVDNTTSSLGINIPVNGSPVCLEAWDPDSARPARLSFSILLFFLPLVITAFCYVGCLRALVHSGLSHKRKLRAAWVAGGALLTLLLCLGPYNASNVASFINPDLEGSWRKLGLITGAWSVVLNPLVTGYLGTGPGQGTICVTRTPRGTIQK
Sequence of Free fatty acid receptor 1 (Rattus norvegicus) (Q8K3T4 whole entry): as above
Sequence of Bile salt export pump (O95342 whole entry): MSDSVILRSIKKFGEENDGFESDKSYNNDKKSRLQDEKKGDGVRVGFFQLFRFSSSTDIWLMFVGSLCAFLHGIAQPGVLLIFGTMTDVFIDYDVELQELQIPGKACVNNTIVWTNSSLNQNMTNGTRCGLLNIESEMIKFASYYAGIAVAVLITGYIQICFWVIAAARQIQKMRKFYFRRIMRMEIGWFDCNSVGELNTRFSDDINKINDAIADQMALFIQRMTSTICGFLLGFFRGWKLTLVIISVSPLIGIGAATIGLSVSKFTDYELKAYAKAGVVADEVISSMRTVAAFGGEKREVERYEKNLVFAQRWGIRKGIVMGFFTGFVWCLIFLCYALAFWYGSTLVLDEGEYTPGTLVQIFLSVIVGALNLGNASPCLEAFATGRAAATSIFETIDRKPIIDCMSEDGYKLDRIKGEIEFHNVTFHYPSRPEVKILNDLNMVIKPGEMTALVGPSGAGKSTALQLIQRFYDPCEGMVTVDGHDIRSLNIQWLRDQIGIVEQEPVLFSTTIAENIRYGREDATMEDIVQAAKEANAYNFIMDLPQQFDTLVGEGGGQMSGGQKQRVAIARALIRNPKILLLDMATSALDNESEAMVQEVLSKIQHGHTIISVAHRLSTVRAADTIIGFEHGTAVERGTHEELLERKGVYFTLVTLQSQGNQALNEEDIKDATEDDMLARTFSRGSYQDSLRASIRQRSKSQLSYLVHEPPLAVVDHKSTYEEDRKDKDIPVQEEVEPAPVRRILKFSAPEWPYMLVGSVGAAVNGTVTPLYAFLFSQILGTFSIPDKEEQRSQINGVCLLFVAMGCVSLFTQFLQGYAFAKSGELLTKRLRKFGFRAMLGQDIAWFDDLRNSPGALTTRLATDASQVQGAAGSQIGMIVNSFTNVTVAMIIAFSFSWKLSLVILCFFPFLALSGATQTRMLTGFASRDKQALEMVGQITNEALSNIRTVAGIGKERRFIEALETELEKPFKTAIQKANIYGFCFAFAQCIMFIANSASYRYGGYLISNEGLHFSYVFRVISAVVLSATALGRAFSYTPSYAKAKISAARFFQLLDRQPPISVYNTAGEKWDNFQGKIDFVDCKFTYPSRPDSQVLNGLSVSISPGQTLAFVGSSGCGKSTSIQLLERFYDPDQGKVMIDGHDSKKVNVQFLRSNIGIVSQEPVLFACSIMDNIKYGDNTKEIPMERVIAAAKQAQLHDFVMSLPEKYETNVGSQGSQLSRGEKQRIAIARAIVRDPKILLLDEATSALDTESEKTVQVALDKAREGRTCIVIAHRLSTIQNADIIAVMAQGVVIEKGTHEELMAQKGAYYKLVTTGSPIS

For the compound `COc1ccc(F)c(-c2ccc(C3CCc4ccc([C@H](C5CC5)[C@H](C)C(=O)O)cc4O3)cc2)c1` (stereo in doubt; 14), the max activation was greater than 179% in series [1], greater than 179% in [2] and greater than 370% in series [3]. In addition, the Cp in the series on Rattus norvegicus [4] is 3 µM.
Regarding `COc1ccc(F)c(-c2ccc(C3CCc4ccc([C@H](C5CC5)[C@H](C)C(=O)[O-])cc4O3)nc2)c1.[Na+]` (stereo in doubt; 16), the “inhibition (INH)” value in the series on Rattus norvegicus [5] is 99%. Further, the EC50 was 0.0023 µM in series [6] and greater than 10 µM in series [10]. Also, in the series on Rattus norvegicus [7], the minimal effective dose was found to be 30 mg/kg. In addition, the fraction unbound in series [8] worked out at 0.003. Moreover, on Bile salt export pump, the IC50 is 0.3 µM. Besides, in [9], the logD at 100 µM stood at 2.25.
In the case of `COc1cc(-c2ccc(C3CCc4ccc([C@H](C5CC5)[C@H](C)C(=O)O)cc4O3)nc2)c(F)cn1` (stereo in doubt; 29), the max activation in [1] was greater than 179%; in series [2], greater than 179%; in series [3], greater than 370%. In addition, the Cp in the series with Rattus norvegicus [4] turned out to be 32 µM; in the series on Rattus norvegicus [11], 0.44 µM; with Rattus norvegicus [12], 2 µM; in the series with Rattus norvegicus [13], 5.4 µM; in the series on Rattus norvegicus [14], 11 µM; in the series with Rattus norvegicus [15], 32 µM.
For the compound `COc1cc(-c2ccc(C3CCc4ccc([C@H](C5CC5)[C@H](C)C(=O)[O-])cc4O3)nc2)c(F)cn1.[Na+]` (stereo in doubt; 29), the inhibition in vivo at 0.3 mg/kg with Rattus norvegicus [16] came to 35%. The EC50 is 0.0027 µM in series [17], 0.243 µM in series [18], 0.0052 µM in series [6] and greater than 10 µM in series [10]. Further, the inhibition in vivo at 3 mg/kg in the series on Rattus norvegicus [5] (Rattus norvegicus, Sprague-Dawley, po) is 108%; in the series on Rattus norvegicus [24], 96%. In addition, the minimal effective dose in the series with Rattus norvegicus [7] is 30 mg/kg. Besides, the fraction unbound in series [8] was determined as 0.001. This compound also registered a clearance in [19] of 0.072 L/h/kg. The Vd in series [20] turned out to be 0.41 L/kg. For the same compound, the half-life in series [21] was 6.4 h. In series [22], this compound returned a bioavailability of 100%. For the same compound, in the series on Rattus norvegicus [23], the inhibition in vivo at 1 mg/kg was found to be 69%. The inhibition in vivo at 10 mg/kg in the series with Rattus norvegicus [25] stood at 111%. Moreover, the inhibition in vivo at 30 mg/kg with Rattus norvegicus [26] stood at 121%. On Bile salt export pump, the IC50 amounted to 3.2 µM.
For `COc1ccc(F)c(-c2ccc(C3CCc4ccc([C@H](C5CC5)[C@H](C)C(=O)O)cc4O3)nc2)c1` (stereo in doubt; 16), the max activation in series [1] is greater than 179%; in series [2], greater than 179%; in series [3] it was greater than 370%. Also, the Cp in the series with Rattus norvegicus [4] turned out to be 13.9 µM.
Regarding `COc1ccc(F)c(-c2ccc(C3CCc4ccc([C@H](C5CC5)[C@H](C)C(=O)[O-])cc4O3)cc2)c1.[Na+]` (stereo in doubt; 14), the EC50 is 0.0011 µM in series [17], 0.146 µM in series [18], 0.0012 µM in series [6] and greater than 10 µM in [10]. Moreover, the “inhibition (INH)” value in the series on Rattus norvegicus [5] is 103%. In addition, the minimal effective dose in the series on Rattus norvegicus [7] was 10 mg/kg. For the same compound, the fraction unbound in [8] came to 0.005. The compound also came in with a clearance in [19] of 0.186 L/h/kg. In addition, the Vd in series [20] came to 0.41 L/kg. For the same compound, the half-life in series [21] was 3.5 h. In [22], this compound gave a bioavailability of 50%. For the same compound, the IC50 on Bile salt export pump was determined as 1.4 µM. The same compound returned a pH-dependent lipophilicity (logD) at 100 µM in series [9] of 2.94.
